We go through 9 compounds from publication PMC2918654 (Bioorganic & medicinal chemistry, 2010).

Data set [1] addresses T1, δ-opioid receptor (Mus musculus, UniProt P32300). The data set can be described thus: Electrically stimulated mouse vas deferens. It is filed as cell-based.
A further data set deals with μ-opioid receptors (Rattus norvegicus, UniProt P33535). Nature of the data set: Competitive binding assay, μ-opioid receptors, [3H]DAMGO. Set-up: species or system Sprague-Dawley rats.
Data set [2] concerns the target T2, μ-opioid receptor (Cavia porcellus, UniProt P97266). Nature of the data set: Electrically stimulated guinea-pig ileum. It is filed as cell-based, guinea pigs.
For data set [3], the target named is T3, δ-opioid receptors (Rattus norvegicus, UniProt P33533). The data set can be described thus: Competitive binding assay, δ-opioid receptors, [3H]deltorphin II. On the set-up: species or system Sprague-Dawley rats. To be noted: for selectivity Ki^μ/Ki^δ: ratio of binding Ki values.
T3 sequence (P33533 whole entry): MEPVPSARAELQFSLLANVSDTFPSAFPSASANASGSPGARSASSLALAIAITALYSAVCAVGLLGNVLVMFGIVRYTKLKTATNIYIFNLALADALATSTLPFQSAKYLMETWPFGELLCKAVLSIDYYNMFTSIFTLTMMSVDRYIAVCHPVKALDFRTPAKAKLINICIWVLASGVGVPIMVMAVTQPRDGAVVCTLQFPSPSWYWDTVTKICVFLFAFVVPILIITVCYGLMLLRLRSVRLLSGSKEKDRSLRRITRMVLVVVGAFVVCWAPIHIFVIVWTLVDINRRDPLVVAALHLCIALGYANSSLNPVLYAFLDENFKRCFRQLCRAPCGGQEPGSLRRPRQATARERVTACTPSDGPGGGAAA
Data set [4] has as its target T3, δ-opioid receptors. To be noted: ref Balboni et al.[14]; cited from earlier work.
The target in data set [5] is T2, μ-opioid receptor. To be noted: μ antagonism, cited from earlier work.
Data set [6] deals with T1, δ-opioid receptor. To be noted: δ antagonism, cited from earlier work.
The conditions of data set [7]: about 2 units lower than Tyr; cited from earlier work.
The target of another data set is δ opioid receptor. To be noted: read-out: δ agonist IC50; cited from earlier work.

Like-named read-outs stand apart in the source and are kept apart here. Where a SMILES comes first, the peptide text is derived from it. [ ]: non-standard residue; d: D form. The star is where a group is joined. Dmt = Cc1cc(O)cc(C)c1C[C@H](N)C(=O)O; Tic = O=C(O)[C@@H]1Cc2ccccc2CN1; NHBn = c1ccc(CN*)cc1 Some results are limits rather than exact numbers.

T1 sequence (P32300 whole entry): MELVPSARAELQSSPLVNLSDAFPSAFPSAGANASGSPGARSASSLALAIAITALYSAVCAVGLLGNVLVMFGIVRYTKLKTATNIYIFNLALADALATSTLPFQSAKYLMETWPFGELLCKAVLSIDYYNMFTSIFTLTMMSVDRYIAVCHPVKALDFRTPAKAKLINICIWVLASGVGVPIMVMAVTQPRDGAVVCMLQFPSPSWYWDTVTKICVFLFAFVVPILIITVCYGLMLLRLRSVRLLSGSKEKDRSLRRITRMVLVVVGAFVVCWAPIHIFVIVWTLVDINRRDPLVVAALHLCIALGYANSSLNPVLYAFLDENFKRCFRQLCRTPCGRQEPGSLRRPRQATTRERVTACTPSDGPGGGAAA
Chain of μ-opioid receptors (P33535 whole entry): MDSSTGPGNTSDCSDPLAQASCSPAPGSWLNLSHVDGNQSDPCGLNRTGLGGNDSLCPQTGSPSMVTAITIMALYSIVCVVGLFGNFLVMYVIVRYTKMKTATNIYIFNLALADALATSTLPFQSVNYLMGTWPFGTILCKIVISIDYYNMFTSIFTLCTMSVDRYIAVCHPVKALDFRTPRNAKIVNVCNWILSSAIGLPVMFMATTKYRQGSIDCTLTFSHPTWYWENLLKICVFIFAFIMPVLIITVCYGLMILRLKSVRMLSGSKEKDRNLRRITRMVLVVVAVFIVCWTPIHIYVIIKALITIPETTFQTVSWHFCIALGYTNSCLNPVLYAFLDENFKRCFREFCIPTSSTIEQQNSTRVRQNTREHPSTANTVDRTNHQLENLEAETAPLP
T2 sequence (P97266 whole entry, looked up): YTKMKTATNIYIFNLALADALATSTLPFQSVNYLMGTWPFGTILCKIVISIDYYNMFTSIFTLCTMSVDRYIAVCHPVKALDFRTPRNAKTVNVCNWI

For the compound `CC(C)[C@H](NC(=O)[C@H](CCC(=O)O)NC(=O)[C@H](Cc1ccccc1)NC(=O)[C@@H](C)NC(=O)[C@@H](N)Cc1c(F)cc(O)cc1F)C(=O)N[C@H](C(=O)NCC(N)=O)C(C)C` [Compound 8, [Dft^1]Deltorphin B], the IC50 – broadly, the concentration that inhibits the measured activity by half – stood at 0.4 ± 0.08 nM on δ-opioid receptor [1] and 3560 ± 566 nM on μ-opioid receptor [2]. In addition, the Ki (in general, a measure of affinity in units of concentration, obtained from inhibition or displacement) at μ-opioid receptors was found to be 154 ± 19 nM; on δ-opioid receptors [3], 0.241 ± 0.03 nM. The “selectivity Ki^μ/Ki^δ” value at δ-opioid receptors [3] was 640.

`CC(C)[C@H](NC(=O)[C@H](CCC(=O)O)NC(=O)[C@H](Cc1ccccc1)NC(=O)[C@@H](C)NC(=O)[C@@H](N)Cc1ccc(O)cc1)C(=O)N[C@H](C(=O)NCC(N)=O)C(C)C` [Compound 9, H-Tyr-D-Ala-Phe-Glu-Val-Val-Gly-NH2, reference compound] had an IC50 on μ-opioid receptor [2] above 10000 nM.

On to `Cc1cc(O)cc(C)c1C[C@H](N)C(=O)N1Cc2ccccc2C[C@H]1C(=O)N[C@@H](CCCCN)C(=O)NCc1ccccc1` [Compound 10, H-Dmt-Tic-Lys-NH-Bzl] (H-[Dmt]-[Tic]-Lys-NHBn), for which the “selectivity Ki^μ/Ki^δ” value on δ-opioid receptors [4] was 8. In addition, at μ-opioid receptor [5] (ref Balboni et al.[14]), the “functional bioactivity GPI pA2” value is listed as 7.96. Also, the “functional bioactivity MVD pA2” value at δ-opioid receptor [6] (ref Balboni et al.[14]) is recorded as 6.01.

In the case of `NCCCC[C@H](NC(=O)[C@@H]1Cc2ccccc2CN1C(=O)[C@@H](N)Cc1c(F)cc(O)cc1F)C(=O)NCc1ccccc1` [Compound 11, H-Dft-Tic-Lys-NH-Bzl], the Ki on μ-opioid receptors came out at 1030 ± 83 nM. In addition, at δ-opioid receptors [3], the Ki stood at 153 ± 21 nM and the “selectivity Ki^μ/Ki^δ” value is 7.

Compound `NCCCC[C@H](NC(=O)[C@@H]1Cc2ccccc2CN1C(=O)[C@@H](N)Cc1ccc(O)cc1)C(=O)NCc1ccccc1` [Compound 12, H-Tyr-Tic-Lys-NH-Bzl] (H-Tyr-[Tic]-Lys-NHBn) had a Ki on μ-opioid receptors of 1650 ± 231 nM. On δ-opioid receptors [3], the Ki is 63.9 ± 7.6 nM and the “selectivity Ki^μ/Ki^δ” value worked out at 26.

On to `Cc1cc(O)cc(C)c1C[C@@H](C(=O)N1Cc2ccccc2C[C@H]1C(=O)O)N(C)C` [Compound 13, N,N(Me)2-Dmt-Tic-OH], for which the “functional bioactivity GPI pA2” value on μ-opioid receptor [5] (ref Salvadori et al.[15]) is listed as 5.8. In addition, at δ-opioid receptor [6] (ref Salvadori et al.[15]), the “functional bioactivity MVD pA2” value was 9.4.

In the case of `Cc1cc(O)cc(C)c1C[C@@H](C(=O)N1Cc2ccccc2C[C@H]1C(N)=O)N(C)C` [Compound 16, N,N(Me)2-Dmt-Tic-NH2], the “functional bioactivity GPI pA2” value at μ-opioid receptor [5] (ref Salvadori et al.[15]) is recorded as 6.3. The “functional bioactivity MVD pA2” value on δ-opioid receptor [6] (ref Salvadori et al.[15]) is on record as 9.9.

Consider `N[C@@H](Cc1c(F)cc(O)cc1F)C(=O)O` [Dft, 2′,6′-difluoro-L-tyrosine], for which, in [7], the pKa (in general, the negative logarithm of the acid dissociation constant) is 8.1.

For the compound H-Bcp-Tic-Phe-Phe-OH, at δ opioid receptor, the IC50 is 3.42 nM.
